Patent US20110207759A1, “METHOD FOR TREATMENT OF ATHEROSCLEROTIC DISEASE” (priority 2010, published 2011)
Read-outs that look alike come from different tables or passages of the source.

How the values were obtained:
[1] = tested on: statin-treated patients with atherosclerotic coronary or vascular disease or coronary risk equivalent; conditions: for Deaths: of 176 ezetimibe / of 187 niacin enrolled
Description: (§1) Endpoints: The predefined primary endpoint was the between-group difference in the change in mean CIMT after 14 months. Secondary endpoints included the change in lipid values, a composite endpoint consisting of major adverse cardiovascular events (coronary heart disease death, myocardial infarction, myocardial revascularization, admission to the hospital for an acute coronary syndrome), drug discontinuation due to adverse effects, and health-related quality of life (Schweikert et al., 2008). Clinical cardiovascular endpoints were adjudicated by consensus of two members of the data advisory committee blinded to treatment assignment.

[2] = tested on: statin-treated patients with atherosclerotic coronary or vascular disease or coronary risk equivalent; assay: Major adverse cardiovascular events (composite clinical endpoint); assay type: in vivo, human; conditions: 14-month study; for Cardiovascular death (number of events) / Coronary revascularization procedure (number of events) / Myocardial infarction (number of events) / Subjects experiencing a composite clinical cardiovascular endpoint (major adverse cardiovascular events): ezetimibe N=165, niacin N=160
Description: as §1

[3] = tested on: statin-treated patients with atherosclerotic coronary or vascular disease or coronary risk equivalent; assay: Carotid B-mode ultrasound: change in carotid intima-media thickness (CIMT), ARBITER 6-HALTS trial; assay type: in vivo, human; conditions: for Change in CIMT: 8 and 14 months; for Change in CIMT / Change in CIMT - Mean CIMT / Change in CIMT - Max CIMT: added to statin; for Change in CIMT - Mean CIMT / Change in CIMT - Max CIMT / Change in mean CIMT / Change from baseline CIMT, maximal thickness / Change from baseline CIMT, mean thickness: mean ± SE; for Change in mean CIMT: LOCF; for Effect of increased cumulative drug exposure on CIMT: exploratory analysis, quartiles of adherence × dose × duration; for Change from baseline CIMT, maximal thickness / Change from baseline CIMT, mean thickness: last observation carried forward, all subjects (ezetimibe n=161, niacin n=154)
Description: as §1
Carotid B-mode Ultrasound: Carotid ultrasonography was performed using a Sonosite Micromax ultrasound system (Bothell, Wash.) equipped with a broadband linear array probe (13 MHz). Participants underwent 3 ultrasound examinations during the study at baseline, 8 and 14 months. Except for the initial 20 baseline examinations performed at the Washington Adventist site, a single sonographer performed all ultrasound examinations. Images were obtained of the far wall of the distal 1 centimeter of the right and left common carotid arteries in the anterior and lateral views. A total of eight images (2 complete sets of 4 separate images) were obtained with standardized ultrasound settings. Baseline CIMT images were used to localize the site of imaging in serial images. Digitized still images from an electrocardiographically-defined diastolic frame were quantitated off-line. A single observer unaware of treatment assignment and patient identification performed measurements of mean and maximal CIMT. Focal atherosclerotic plaque was excluded from the site of CIMT measurement. All measurements were performed in duplicate using an automated border detection algorithm. […] Reader drift was evaluated using a standard image set (10 CIMT images from different patients) which the sonographer serially quantified every 6 months.
Statistical analysis: The primary endpoint was the change in mean CIMT from baseline to 14 months between the niacin and ezetimibe treatment groups. […] Clinical and carotid imaging data were held in separate databases for the duration of the trial. Between-group data for continuous variables were assessed with a t-test for independent variables or a Mann-Whitney U test as appropriate. A chi-square test was used for categorical variables. Kaplan-Meier survival analysis was performed using the log rank test. All statistical analyses were performed using SPSS software (version 16, SPSS Inc., Chicago, Ill.). Values are reported as mean±standard deviation or standard error, and median (inter-quartile range) for non-normal distributions. A 2-sided P value of 0.05 was considered statistically significant.
Study design: The study design prespecified the performance of a blinded, interim analysis according to the conservative method of O'Brien and Fleming with an alpha spending function (O'Brien et al. 1979). This was conducted after 180 subjects (60% of the planned sample size) completed the study. An independent data advisory committee evaluated the endpoint data without knowledge of treatment assignment. No formal, a priori stopping boundaries were set for the trial.

[4] = tested on: statin-treated patients with atherosclerotic coronary or vascular disease or coronary risk equivalent; assay: Fasting plasma lipids, glucose and C-reactive protein during treatment; conditions: for HDL-C / LDL-C / Total Cholesterol / Final change in HDL-C / Final change in LDL-C: added to statin; for HDL-C / LDL-C / Total Cholesterol / Total cholesterol, final values / HDL-C, final values / LDL-C, final values: mean ± SD; for C-reactive protein / Triglycerides: median (inter-quartile range); for Change from baseline in LDL-C and triglycerides: 315 patients, baseline to final; for Final change in HDL-C / Final change in LDL-C: baseline to 14 months; for Total cholesterol, final values / HDL-C, final values / LDL-C, final values / Triglycerides, final values / hsCRP, final values: study completion; for Total cholesterol, final values: n=315 (ezetimibe 161, niacin 154), last observation carried forward; for HDL-C, final values / LDL-C, final values / Triglycerides, final values / hsCRP, final values: n=315; for Triglycerides, final values / hsCRP, final values: median (interquartile range);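 for all read-outs here: plasma drawn after an overnight fast, LDL-C determined by direct assay and C-reactive protein by high-sensitivity immunoturbidimetry with monoclonal anti-CRP antibodies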
Description: Study population: This prospective, randomized, parallel group, open-label, blinded endpoint study was conducted at two centers, Walter Reed Army Medical Center, a university-affiliated, suburban, tertiary care military medical center, and the Washington Adventist Hospital, a private tertiary care hospital located in Takoma Park, Md. The institutional review boards of each facility approved the study, and all volunteers provided written, informed consent. Included subjects were men and women ≧30 years old with either known atherosclerotic coronary or vascular disease (N=279) or a coronary risk equivalent diagnosis including diabetes mellitus (N=38), a 10-year coronary heart disease Framingham risk score ≧20% (N=26), or a coronary calcium score above 200 or 400 (N=20) for women and men respectively.
Randomization: Three hundred sixty-three patients were enrolled in the trial. […] Randomization was performed using a computer-generated sequence of random numbers. There were no protocol-directed changes in statin medications during the study.
Cardiovascular risk variables: Following an overnight fast, laboratory measurements included plasma total cholesterol, LDL-C, HDL-C, triglycerides, C-reactive protein, liver-associated enzymes and glucose at baseline, 2, 8 and 14 months. LDL-C was measured using a direct assay. C-reactive protein was measured with a high-sensitivity, commercially available immunoturbidimetric assay, which uses monoclonal antibodies to CRP (Roche Cobas® Integra, Switzerland).

[5] = both, human, in vivo, 14 months
[6] = 8 months from baseline, 208 completers (ezetimibe N=111, niacin N=97)
[7] = 8 months from baseline, 208 completers
[8] = 14 months from baseline, completing subjects (ezetimibe n=111, niacin n=97)
[9] = Quartile 1 (lowest) of cumulative drug exposure (adherence × dose × treatment duration)
[10] = Quartile 2 of cumulative drug exposure
[11] = Quartile 3 of cumulative drug exposure
[12] = Quartile 4 (highest) of cumulative drug exposure, 14 months
[13] = 2 Months, 208 subjects who completed 14 month study

## O=C1[C@H](CC[C@H](O)c2ccc(F)cc2)[C@@H](c2ccc(O)cc2)N1c1ccc(F)cc1 [Ezetimibe, ezetimibe]
[1]; [5]
  Withdrawals with adverse drug effects cited as the reason: 3
[1]; in vivo
  Subjects who did not complete the study: 16
  Subjects who did not complete the study (percent): 9.1%
  Withdrawals: 9
[1]
  Deaths: 7
[2]
  Incidence of major adverse cardiovascular events: 5.8%
  Cardiovascular death (number of events): 5
  Coronary revascularization procedure (number of events): 3
  Myocardial infarction (number of events): 3
  Subjects experiencing a composite clinical cardiovascular endpoint (major adverse cardiovascular events): 9 subjects
[3]; 208 completers
  Change in CIMT: No net change
[3]; [6]
  Change in CIMT - Mean CIMT: 0.0014 ± 0.0020 mm
[3]; [7]
  Change in CIMT - Max CIMT: −0.0028 ± 0.0031 mm
[3]; [8]
  Change in CIMT - Max CIMT: −0.0009 ± 0.0039 mm
  Change in CIMT - Mean CIMT: −0.0007 ± 0.0035 mm
[3]; [9]
  Change in mean CIMT: −0.0071 ± 0.0031 mm
[3]; [10]
  Change in mean CIMT: −0.0051 ± 0.0036 mm
[3]; [11]
  Change in mean CIMT: −0.0009 ± 0.0067 mm
[3]; [12]
  Change in mean CIMT: 0.0067 ± 0.0059 mm
[3]; Quartile 4 (highest) of cumulative drug exposure, 14 months, listed as ezetimibe
  Change in mean CIMT: 0.0067±0.0059 mm
[3]
  Effect of increased cumulative drug exposure on CIMT: progression of CIMT
  Change from baseline CIMT, maximal thickness: −0.0005 ± 0.0029 mm
  Change from baseline CIMT, mean thickness: −0.0016 ± 0.0024 mm
[3]; listed as ezetimibe
  Change from baseline CIMT, maximal thickness: −0.0005±0.0029 mm
  Change from baseline CIMT, mean thickness: −0.0016±0.0024 mm
[4]; 2 Months, 208 completers
  HDL-C: 42.2 ± 8.5 mg/dL
  LDL-C: 60.1 ± 16.1 mg/dL
  C-reactive protein: 1.2 (0.6-3.0) mg/L
  Triglycerides: 100 (78-140) mg/dL
[4]; [13]
  Total Cholesterol: 120.2 ± 20.6 mg/dL
[4]; 8 Months, 208 completers
  HDL-C: 41.1 ± 9.0 mg/dL
  LDL-C: 61.6 ± 17.2 mg/dL
  Total Cholesterol: 122.4 ± 21.5 mg/dL
  C-reactive protein: 1.3 (0.6-2.9) mg/L
  Triglycerides: 107 (78-153) mg/dL
[4]; 14 Months, 208 completers
  HDL-C: 40.5 ± 7.9 mg/dL
  LDL-C: 66.1 ± 18.8 mg/dL
  Total Cholesterol: 127.8 ± 22.8 mg/dL
  C-reactive protein: 0.6 (0.6-3.1) mg/L
  Triglycerides: 113 (84-150) mg/dL
[4]
  Change from baseline in LDL-C and triglycerides: Significant reductions
  Total cholesterol, final values: 127.5 ± 24.8 mg/dL
  HDL-C, final values: 41.1 ± 8.5 mg/dL
  LDL-C, final values: 65.5 ± 20.0 mg/dL
  Triglycerides, final values: 111 (82-144) mg/dl
  hsCRP, final values: 1.0 (0.5-2.9) mg/l
[4]; 208 completers
  Final change in HDL-C: -2.8 ± 5.7 mg/dL
  Final change in LDL-C: -17.6 ± 20.1 mg/dL

## O=C(O)c1cccnc1 [Niacin, niacin]
[1]; [5]
  Cutaneous flushing reported: 36.1%
[1]; in vivo
  Subjects who did not complete the study: 28
  Subjects who did not complete the study (percent): 14.9%
  Withdrawals: 27
[1]; of 9 ezetimibe / of 27 niacin withdrawals
  Withdrawals with adverse drug effects cited as the reason: 17
[1]
  Deaths: 1
[2]
  Incidence of major adverse cardiovascular events: 1.3%
  Cardiovascular death (number of events): 1
  Coronary revascularization procedure (number of events): 0
  Myocardial infarction (number of events): 1
  Subjects experiencing a composite clinical cardiovascular endpoint (major adverse cardiovascular events): 2 subjects
[3]; 208 completers
  Change in CIMT: significant reduction in mean and maximal CIMT (regression)
[3]; [6]
  Change in CIMT - Mean CIMT: −0.0102 ± 0.0030 mm
[3]; [7]
  Change in CIMT - Max CIMT: −0.0128 ± 0.0043 mm
[3]; [8]
  Change in CIMT - Max CIMT: −0.0181 ± 0.0050 mm
  Change in CIMT - Mean CIMT: −0.0142 ± 0.0041 mm
[3]; 14 months from baseline, completing subjects (ezetimibe n=111, niacin n=97), listed as ERN
  Change in CIMT - Mean CIMT: −0.0142±0.0041 mm
[3]; [9]
  Change in mean CIMT: −0.0052 ± 0.0041 mm
[3]; [10]
  Change in mean CIMT: −0.0073 ± 0.0027 mm
[3]; [11]
  Change in mean CIMT: −0.0148 ± 0.0060 mm
[3]; [12]
  Change in mean CIMT: −0.0128 ± 0.0078 mm
[3]; Quartile 4 (highest) of cumulative drug exposure, 14 months, listed as ERN
  Change in mean CIMT: −0.0128±0.0078 mm
[3]
  Effect of increased cumulative drug exposure on CIMT: regression of CIMT
  Change from baseline CIMT, maximal thickness: −0.0124 ± 0.0036 mm
  Change from baseline CIMT, mean thickness: −0.0102 ± 0.0026 mm
[3]; listed as niacin
  Change from baseline CIMT, maximal thickness: −0.0124±0.0036 mm
  Change from baseline CIMT, mean thickness: −0.0102±0.0026 mm
[4]; 2 Months, 208 completers
  HDL-C: 48.9 ± 10.6 mg/dL
  LDL-C: 66.2 ± 18.1 mg/dL
  C-reactive protein: 1.1 (0.6-3.1) mg/L
  Triglycerides: 88 (69-125) mg/dL
[4]; [13]
  Total Cholesterol: 131.0 ± 22.9 mg/dL
[4]; 8 Months, 208 completers
  HDL-C: 50.7 ± 11.6 mg/dL
  LDL-C: 67.1 ± 19.5 mg/dL
  Total Cholesterol: 133.6 ± 25.5 mg/dL
  C-reactive protein: 1.1 (0.5-2.4) mg/L
  Triglycerides: 88 (66-123) mg/dL
[4]; 14 Months, 208 completers
  HDL-C: 49.9 ± 12.2 mg/dL
  LDL-C: 70.5 ± 23.9 mg/dL
  Total Cholesterol: 136.7 ± 29.3 mg/dL
  C-reactive protein: 1.0 (0.4-2.9) mg/L
  Triglycerides: 90 (69-138) mg/dL
[4]
  Change from baseline in LDL-C and triglycerides: Significant reductions
  Total cholesterol, final values: 137.6 ± 30.5 mg/dL
  HDL-C, final values: 49.7 ± 11.5 mg/dL
  LDL-C, final values: 72.7 ± 25.9 mg/dL
  Triglycerides, final values: 91 (69-134) mg/dl
  hsCRP, final values: 1.0 (0.4-2.3) mg/l
[4]; 208 completers
  Final change in HDL-C: +7.5±9.2 mg/dL
  Final change in LDL-C: -10.0 ± 24.5 mg/dL
